Results published in ChEMBL document CHEMBL1681705, “Optimisation of ITK inhibitors through successive iterative design cycles” (Bioorg Med Chem Lett, 2011).

How the values were obtained:
[1] = target: Ribosomal protein S6 kinase beta-1 (Homo sapiens) (UniProt P23443); assay: Inhibition of p70S6K at 1 uM
[2] = target: Tyrosine-protein kinase HCK (Homo sapiens) (UniProt P08631); assay: Inhibition of Hck at 1 uM; values are per cent of control
[3] = target: T1, Serine/threonine-protein kinase Chk1 (Homo sapiens) (UniProt O14757); assay: Inhibition of CHK1 at 1 uM; values are per cent of control
T1 sequence (whole entry): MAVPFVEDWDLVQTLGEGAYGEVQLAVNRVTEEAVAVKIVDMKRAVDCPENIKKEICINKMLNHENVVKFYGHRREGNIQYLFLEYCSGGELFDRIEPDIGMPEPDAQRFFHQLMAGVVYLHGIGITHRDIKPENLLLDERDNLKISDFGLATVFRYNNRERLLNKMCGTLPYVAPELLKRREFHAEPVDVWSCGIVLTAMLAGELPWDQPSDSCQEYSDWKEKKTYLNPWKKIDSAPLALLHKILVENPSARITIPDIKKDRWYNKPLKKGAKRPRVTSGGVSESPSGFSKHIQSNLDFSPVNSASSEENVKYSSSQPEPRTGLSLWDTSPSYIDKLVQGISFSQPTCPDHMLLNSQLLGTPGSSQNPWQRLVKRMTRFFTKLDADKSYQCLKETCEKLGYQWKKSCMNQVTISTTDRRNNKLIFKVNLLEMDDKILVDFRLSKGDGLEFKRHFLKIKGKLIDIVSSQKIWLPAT

[4] = target: T2, Serine/threonine-protein kinase Sgk1 (Homo sapiens) (UniProt O00141); assay: Inhibition of SGK at 0.1 uM; values are per cent of control
T2 sequence (whole entry): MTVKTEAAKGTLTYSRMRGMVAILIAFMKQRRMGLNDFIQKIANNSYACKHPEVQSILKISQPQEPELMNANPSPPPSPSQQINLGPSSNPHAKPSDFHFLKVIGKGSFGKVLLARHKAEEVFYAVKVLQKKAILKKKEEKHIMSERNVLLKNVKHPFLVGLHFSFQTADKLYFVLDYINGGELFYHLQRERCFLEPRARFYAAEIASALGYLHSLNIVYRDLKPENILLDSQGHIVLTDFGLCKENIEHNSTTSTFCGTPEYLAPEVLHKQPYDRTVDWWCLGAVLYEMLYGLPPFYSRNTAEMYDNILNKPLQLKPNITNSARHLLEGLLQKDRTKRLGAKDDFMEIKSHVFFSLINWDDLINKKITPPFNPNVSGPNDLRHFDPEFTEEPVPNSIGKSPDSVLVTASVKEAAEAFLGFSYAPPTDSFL

[5] = target: T3, Ephrin type-A receptor 8 (Homo sapiens) (UniProt P29322); assay: Inhibition of EphA8 at 1 uM; values are per cent of control
T3 sequence (whole entry): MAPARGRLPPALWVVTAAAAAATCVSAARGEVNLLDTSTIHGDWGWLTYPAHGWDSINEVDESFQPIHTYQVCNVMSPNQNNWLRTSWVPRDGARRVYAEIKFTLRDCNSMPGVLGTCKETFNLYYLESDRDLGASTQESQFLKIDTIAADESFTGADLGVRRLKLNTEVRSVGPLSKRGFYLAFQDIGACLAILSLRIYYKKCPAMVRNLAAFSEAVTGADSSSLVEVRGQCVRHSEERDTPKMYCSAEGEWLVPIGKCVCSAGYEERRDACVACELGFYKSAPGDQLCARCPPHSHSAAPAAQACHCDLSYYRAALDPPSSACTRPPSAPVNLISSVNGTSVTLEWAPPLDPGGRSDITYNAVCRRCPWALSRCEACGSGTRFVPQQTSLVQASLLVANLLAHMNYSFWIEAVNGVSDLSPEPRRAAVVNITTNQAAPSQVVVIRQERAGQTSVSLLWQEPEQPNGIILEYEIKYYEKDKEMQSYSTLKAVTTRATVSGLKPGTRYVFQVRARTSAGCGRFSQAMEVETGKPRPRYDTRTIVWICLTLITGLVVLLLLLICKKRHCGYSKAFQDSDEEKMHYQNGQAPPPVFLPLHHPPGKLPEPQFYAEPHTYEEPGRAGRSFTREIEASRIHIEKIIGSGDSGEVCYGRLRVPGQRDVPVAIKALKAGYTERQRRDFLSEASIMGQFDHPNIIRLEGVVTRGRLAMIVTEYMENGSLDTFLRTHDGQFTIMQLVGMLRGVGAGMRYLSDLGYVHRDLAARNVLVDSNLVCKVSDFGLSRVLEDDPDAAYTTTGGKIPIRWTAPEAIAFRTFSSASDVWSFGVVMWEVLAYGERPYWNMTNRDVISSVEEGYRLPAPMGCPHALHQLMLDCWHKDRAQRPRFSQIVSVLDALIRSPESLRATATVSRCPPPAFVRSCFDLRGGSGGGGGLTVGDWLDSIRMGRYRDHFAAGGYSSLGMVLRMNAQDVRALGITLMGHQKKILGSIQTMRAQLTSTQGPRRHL

[6] = target: Ribosomal protein S6 kinase alpha-1 (Homo sapiens) (UniProt Q15418); assay: Inhibition of Rsk1 at 0.1 uM; values are per cent of control
[7] = target: RAC-beta serine/threonine-protein kinase (Homo sapiens) (UniProt P31751); assay: Inhibition of PKBbeta at 0.1 uM; values are per cent of control
[8] = target: T4, Dual specificity mitogen-activated protein kinase kinase 7 (Homo sapiens) (UniProt O14733); assay: Inhibition of MKK7beta at 0.1 uM; values are per cent of control
T4 sequence (whole entry): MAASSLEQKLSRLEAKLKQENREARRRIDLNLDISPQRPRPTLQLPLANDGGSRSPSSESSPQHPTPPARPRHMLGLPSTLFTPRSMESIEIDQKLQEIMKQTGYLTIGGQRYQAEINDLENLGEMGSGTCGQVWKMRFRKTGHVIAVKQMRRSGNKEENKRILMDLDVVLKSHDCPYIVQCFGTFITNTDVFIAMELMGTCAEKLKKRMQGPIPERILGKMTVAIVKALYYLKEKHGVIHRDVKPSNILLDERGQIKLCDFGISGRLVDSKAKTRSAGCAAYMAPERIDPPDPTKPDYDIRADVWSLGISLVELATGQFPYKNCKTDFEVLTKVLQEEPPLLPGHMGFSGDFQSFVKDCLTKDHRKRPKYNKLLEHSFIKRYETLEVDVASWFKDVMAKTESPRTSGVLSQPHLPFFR

Tyrosine-protein kinase HCK (Homo sapiens), sequence (P08631 2-526 limits assumed): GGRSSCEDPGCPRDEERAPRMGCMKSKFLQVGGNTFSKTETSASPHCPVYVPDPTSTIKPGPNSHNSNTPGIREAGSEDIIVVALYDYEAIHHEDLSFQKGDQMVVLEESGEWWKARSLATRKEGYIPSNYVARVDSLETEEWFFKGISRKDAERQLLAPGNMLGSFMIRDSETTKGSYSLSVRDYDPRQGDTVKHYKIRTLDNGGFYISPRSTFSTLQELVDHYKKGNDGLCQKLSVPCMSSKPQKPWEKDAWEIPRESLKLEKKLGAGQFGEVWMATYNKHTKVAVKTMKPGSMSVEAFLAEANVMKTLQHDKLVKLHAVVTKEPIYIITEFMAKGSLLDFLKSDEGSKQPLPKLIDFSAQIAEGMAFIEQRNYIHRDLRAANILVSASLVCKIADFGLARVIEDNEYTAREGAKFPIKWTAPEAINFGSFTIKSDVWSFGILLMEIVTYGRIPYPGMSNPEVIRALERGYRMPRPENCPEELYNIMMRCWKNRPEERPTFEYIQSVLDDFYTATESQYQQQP
Ribosomal protein S6 kinase alpha-1 (Homo sapiens), sequence (Q15418 whole entry): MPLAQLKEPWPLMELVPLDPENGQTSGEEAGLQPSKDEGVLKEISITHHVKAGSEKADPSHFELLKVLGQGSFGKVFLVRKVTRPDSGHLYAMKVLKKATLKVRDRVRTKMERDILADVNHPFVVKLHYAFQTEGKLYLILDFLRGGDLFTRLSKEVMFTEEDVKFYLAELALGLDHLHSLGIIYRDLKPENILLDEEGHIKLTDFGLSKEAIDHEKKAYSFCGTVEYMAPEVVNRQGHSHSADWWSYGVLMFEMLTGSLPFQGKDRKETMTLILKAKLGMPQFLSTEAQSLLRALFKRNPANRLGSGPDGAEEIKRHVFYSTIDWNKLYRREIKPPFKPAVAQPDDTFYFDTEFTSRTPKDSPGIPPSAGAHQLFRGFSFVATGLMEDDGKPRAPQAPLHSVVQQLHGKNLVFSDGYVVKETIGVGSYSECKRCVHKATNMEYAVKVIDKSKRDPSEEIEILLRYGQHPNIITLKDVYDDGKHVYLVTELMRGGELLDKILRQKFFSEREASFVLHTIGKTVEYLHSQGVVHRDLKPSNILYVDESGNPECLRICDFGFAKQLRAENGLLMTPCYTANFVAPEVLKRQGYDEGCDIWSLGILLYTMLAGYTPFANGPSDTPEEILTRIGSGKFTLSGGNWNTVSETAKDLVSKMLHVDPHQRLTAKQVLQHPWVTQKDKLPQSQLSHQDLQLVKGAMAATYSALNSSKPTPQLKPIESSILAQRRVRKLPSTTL
RAC-beta serine/threonine-protein kinase (Homo sapiens), sequence (P31751 whole entry): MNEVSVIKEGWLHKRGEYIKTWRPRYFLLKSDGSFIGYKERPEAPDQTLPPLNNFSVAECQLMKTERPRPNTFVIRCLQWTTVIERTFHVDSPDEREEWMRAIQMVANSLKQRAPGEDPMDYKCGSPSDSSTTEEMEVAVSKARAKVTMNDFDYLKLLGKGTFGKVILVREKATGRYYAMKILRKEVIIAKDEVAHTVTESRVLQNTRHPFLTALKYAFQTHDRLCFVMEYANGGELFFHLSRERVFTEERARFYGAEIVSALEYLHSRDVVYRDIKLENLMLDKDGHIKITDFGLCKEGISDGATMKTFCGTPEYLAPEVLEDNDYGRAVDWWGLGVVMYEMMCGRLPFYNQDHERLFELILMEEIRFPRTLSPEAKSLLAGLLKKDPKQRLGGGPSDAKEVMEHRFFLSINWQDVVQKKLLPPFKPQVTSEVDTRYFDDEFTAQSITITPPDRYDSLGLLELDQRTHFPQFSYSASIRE
Ribosomal protein S6 kinase beta-1 (Homo sapiens), sequence (P23443 whole entry, looked up): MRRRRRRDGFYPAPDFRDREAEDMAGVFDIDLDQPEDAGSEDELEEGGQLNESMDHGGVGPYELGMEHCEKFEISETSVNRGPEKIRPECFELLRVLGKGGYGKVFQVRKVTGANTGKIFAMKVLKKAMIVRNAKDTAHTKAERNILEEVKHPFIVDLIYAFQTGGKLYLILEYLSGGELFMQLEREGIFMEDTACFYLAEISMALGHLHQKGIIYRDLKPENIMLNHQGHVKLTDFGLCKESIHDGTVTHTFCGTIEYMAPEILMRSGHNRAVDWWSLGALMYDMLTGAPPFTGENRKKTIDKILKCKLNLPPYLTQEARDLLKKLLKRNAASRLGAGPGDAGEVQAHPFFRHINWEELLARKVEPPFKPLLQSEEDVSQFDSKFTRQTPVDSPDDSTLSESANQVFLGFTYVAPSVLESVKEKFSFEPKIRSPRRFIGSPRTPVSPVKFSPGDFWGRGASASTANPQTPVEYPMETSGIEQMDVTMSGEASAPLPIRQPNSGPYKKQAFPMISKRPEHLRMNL

Row | Compound | inhibition [1] [%] | residual activity [2] [%] | residual activity [3] [%] | residual activity [4] [%] | residual activity [5] [%] | residual activity [6] [%] | residual activity [7] [%] | residual activity [8] [%]
1 | Cc1ccc2cc(-c3n[nH]c4ccc(NC5CCNC5)cc34)[nH]c2c1 (stereo unspecified) | 16 | 0 | 6 | 63 | 57 | 6 | 107 | 98
2 | Cc1ccc2cc(-c3n[nH]c4ccc(NC5CCN(Cc6ccccc6)CC5)cc34)[nH]c2c1 | 10 | 7 | 40 | 121 | 58 | 97 | 103 | 103
